Measured values reported in paper PMC5516028, “Molecular tools for GABAA receptors: High affinity ligands for β1-containing subtypes” (Scientific Reports, 2017).
Several values for one entry are separate records, joined by “and”; a condition that tells them apart may be missing. Equal values may be shown once. Read-outs that look alike come from different tables or passages of the source.

Experiments:
Type in all cases: cell-based
[1] = molecular target: T1, α1β3N41R GABAA receptors (Rattus norvegicus, UniProt P62813+P63079, N66R); assay: Two electrode voltage clamp in Xenopus laevis oocytes, mutant α1β3N41R; conditions: co-applied with GABA EC3-5, read-out: EC50 values for the mutated receptors
T1 construct: expressed in transfected cells; host or cells: Xenopus laevis oocytes, mRNA injected
T1 sequence (P62813 28-455): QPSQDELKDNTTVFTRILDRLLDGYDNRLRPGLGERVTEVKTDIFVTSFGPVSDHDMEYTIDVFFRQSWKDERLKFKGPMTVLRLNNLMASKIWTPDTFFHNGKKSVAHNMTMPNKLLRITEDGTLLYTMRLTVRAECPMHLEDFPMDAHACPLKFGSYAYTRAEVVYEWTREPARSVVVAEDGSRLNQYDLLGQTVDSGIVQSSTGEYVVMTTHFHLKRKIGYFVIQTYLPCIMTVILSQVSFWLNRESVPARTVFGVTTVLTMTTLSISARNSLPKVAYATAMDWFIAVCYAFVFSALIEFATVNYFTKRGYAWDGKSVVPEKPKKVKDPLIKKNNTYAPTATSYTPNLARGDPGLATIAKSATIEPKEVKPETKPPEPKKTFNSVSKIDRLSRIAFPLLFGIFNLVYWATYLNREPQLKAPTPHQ
T1 sequence (P63079 26-473 N66R): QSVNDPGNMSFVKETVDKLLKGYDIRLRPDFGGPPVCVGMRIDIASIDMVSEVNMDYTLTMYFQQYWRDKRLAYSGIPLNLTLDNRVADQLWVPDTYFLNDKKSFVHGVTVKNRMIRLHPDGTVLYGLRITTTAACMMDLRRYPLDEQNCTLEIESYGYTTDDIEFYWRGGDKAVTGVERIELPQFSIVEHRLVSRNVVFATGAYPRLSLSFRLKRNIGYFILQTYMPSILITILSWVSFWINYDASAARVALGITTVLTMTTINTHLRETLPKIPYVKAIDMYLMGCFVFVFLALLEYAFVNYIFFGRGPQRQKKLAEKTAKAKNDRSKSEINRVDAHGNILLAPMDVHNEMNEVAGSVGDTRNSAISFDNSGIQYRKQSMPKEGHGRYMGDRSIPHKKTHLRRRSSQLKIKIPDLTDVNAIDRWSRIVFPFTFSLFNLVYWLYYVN
Description: (§1) cDNA’s of rat GABAA receptor subunits α1, α4, β1, β2, β3 and γ2S were cloned as described. cDNAs of the rat subunits α2, α3 and α5 were gifts from P. Malherbe, that of α6 and γ1 were gifts of P. Seeburg and that of δ was a gift of C. Czajkowski. The mutants were constructed using the Q5 Site-Directed Mutagenesis Kit (New England Biolabs) following manufacturer’s instruction. We used the wild-type rat β3-pCI vector as template and the primers […] and […] resulting in a substitution of amino acid N41 (AAC) to R (AGG). We used the wild-type rat β1-pCI vector as template and the primers […] and […] resulting in a substitution of amino acid R41 (CGG) to N (AAC). The mutated subunits were confirmed by sequencing.
(§2) In vitro transcription of mRNA was based on the cDNA expression vectors encoding for rat GABAA receptor subunits α1–6, β1-3, γ1,2, δ and the two β mutants (β1R41N and β3N41R)[40]. After linearizing the cDNA vectors with appropriate restriction endonucleases, the cDNA was purified and concentrated with the DNA Clean and Contentrator ^TM Kit (Zymoresearch, Catalog No. D4005). Capped transcripts of the purified cDNA were produced using the mMESSAGE mMACHINE® T7 transcription kit (Ambion, TX, USA) and polyadenylated using the Ambion PolyA tailing kit (Ambion). After transcription and polyadenylation the RNA was purified with the MEGAclear ^TM Kit (Ambion, Catalog No. AM1908). The final RNA concentration was measured on NanoDrop® ND-1000 and finally diluted and stored in diethylpyrocarbonate-treated water at −80 °C. For the microinjection, the RNA of αβ receptor combinations was mixed at 1:1 ratio (which leads to αβ receptors that consist of predominantly 3 beta and 2 alpha subunits[27]), for αkβlγm (k = 1–3, l = 1, 3, m = 1, 2) receptors at 1:1:5 ratio, for αkβ3γ2 (k = 4–6) and αkβlδ (k = 1, 4 and 6, l = 1, 3) receptor combinations at 3:1:5 ratio.
(§3) Mature female Xenopus laevis (Nasco, WI) were anesthetized in a bath of ice-cold 0.17% Tricain (Ethyl-m-aminobenzoate, Sigma, MO) before decapitation in full accordance with all rules of the Austrian animal protection law (see http://www.ris.bka.gv.at/Dokumente/BgblAuth/BGBLA_2012_I_114/BGBLA_2012_I_114.pdf) and the Austrian animal experiment by-laws (see https://www.ris.bka.gv.at/Dokumente/BgblAuth/BGBLA_2012_II_522/BGBLA_2012_II_522.pdf) which implement the European Directive 2010/63/EU (see http://eur-lex.europa.eu/LexUriServ/LexUriServ.do?uri=OJ:L:2010:276:0033:0079:en:PDF) into the Austrian law (all information accessed on July 27, 2016). The frog’s ovaries were transferred to ND96 medium (96 mM NaCl, 2 mM KCl, 1 mM MgCl2, 5 mM HEPES; pH 7.5). Stage 5–6 oocytes with the follicle cell layer around them were roughly dissected with forceps into packages of 10–15 cells and washed in Ca^2+-free ND96 medium. Cells were then digested with collagenase (type IA, Sigma, NO, 1 mg/mL ND96) at 18 °C shaking at 30 rpm for 30–60 minutes and gently defolliculated with the aid of a glass pipette with appropriate tip diameter and a platinum loop. Defolliculated cells were stored at 18 °C for at least 6 hours in ND96 solution containing penicillin G (10000 IU/100 mL) and streptomycin (10 mg/100 mL) in order to preselect and exclude damaged cells from further treatment. Healthy defolliculated oocytes were injected with an aqueous solution of mRNA. A total of 4.5 ng of mRNA per oocyte was injected with a Nanoject II (Drummond). After injection of mRNA, oocytes were incubated at 18 °C (ND96 + antibiotic) for 2–3 days for αβ receptors and for 3–4 days for αβγ or αβδ receptors before recording. When cells were measured at later time points, oocytes were stored at +4 °C instead of 18 °C.
(§4) For electrophysiological recordings, oocytes were placed on a nylon-grid in a bath of Ca^2+-containing NDE solution medium [96 mM NaCl, 5 mM HEPES-NaOH (pH 7.5), 2 mM KCl, 1 mM MgCl2, 1.8 mM CaCl2].

[2] = molecular target: T2, α4β3γ2 GABAA receptors (Rattus norvegicus, UniProt P28471+P63079); assay: Two electrode voltage clamp in Xenopus laevis oocytes, α4β3γ2
T2 construct: expressed in transfected cells; host or cells: Xenopus laevis oocytes, mRNA injected
T2 sequence (P28471 36-552): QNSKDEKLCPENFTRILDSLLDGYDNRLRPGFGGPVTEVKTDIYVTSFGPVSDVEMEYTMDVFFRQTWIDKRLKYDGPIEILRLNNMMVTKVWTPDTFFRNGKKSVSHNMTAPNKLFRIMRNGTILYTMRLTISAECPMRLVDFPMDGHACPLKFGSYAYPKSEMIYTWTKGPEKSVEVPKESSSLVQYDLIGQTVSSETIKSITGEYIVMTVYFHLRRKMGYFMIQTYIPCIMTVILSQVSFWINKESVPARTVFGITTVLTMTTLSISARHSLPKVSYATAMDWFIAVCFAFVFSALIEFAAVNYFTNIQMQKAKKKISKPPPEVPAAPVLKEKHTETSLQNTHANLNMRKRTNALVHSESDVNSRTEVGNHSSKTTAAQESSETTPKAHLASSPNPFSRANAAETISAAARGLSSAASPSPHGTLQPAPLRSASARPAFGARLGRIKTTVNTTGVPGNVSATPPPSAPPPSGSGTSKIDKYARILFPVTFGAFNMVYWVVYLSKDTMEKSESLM
T2 sequence (P63079 26-473): as the sequence (P63079 26-473 N66R) above, with R41N counted along it
T2 sequence (P18508 39-466 partner): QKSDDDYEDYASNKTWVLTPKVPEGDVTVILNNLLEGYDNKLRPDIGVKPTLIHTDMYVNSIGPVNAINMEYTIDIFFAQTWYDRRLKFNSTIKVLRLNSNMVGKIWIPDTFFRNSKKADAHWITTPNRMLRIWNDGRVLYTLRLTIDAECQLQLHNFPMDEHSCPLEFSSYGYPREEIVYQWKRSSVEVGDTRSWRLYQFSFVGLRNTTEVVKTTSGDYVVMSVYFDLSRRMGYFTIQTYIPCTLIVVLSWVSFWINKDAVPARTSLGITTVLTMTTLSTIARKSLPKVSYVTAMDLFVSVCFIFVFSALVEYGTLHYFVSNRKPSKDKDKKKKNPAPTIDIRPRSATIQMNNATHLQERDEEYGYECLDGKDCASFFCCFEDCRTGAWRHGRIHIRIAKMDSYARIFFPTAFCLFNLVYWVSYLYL
Description: as §1, §2, §3, §4

[3] = molecular target: T3, α1β3 GABAA receptors (Rattus norvegicus, UniProt P62813+P63079); assay: Two electrode voltage clamp in Xenopus laevis oocytes, α1β3
T3 construct: expressed in transfected cells; host or cells: Xenopus laevis oocytes, mRNA injected
T3 sequence (P62813 28-455): as the sequence (P62813 28-455) above
T3 sequence (P63079 26-473): as the sequence (P63079 26-473 N66R) above, with R41N counted along it
Description: as §1, §2, §3, §4

[4] = molecular target: T4, α1β2 GABAA receptors (Rattus norvegicus, UniProt P62813+P63138); assay: Two electrode voltage clamp in Xenopus laevis oocytes, α1β2
T4 construct: expressed in transfected cells; host or cells: Xenopus laevis oocytes, mRNA injected
T4 sequence (P62813 28-455): as the sequence (P62813 28-455) above
T4 sequence (P63138 25-474 limits assumed): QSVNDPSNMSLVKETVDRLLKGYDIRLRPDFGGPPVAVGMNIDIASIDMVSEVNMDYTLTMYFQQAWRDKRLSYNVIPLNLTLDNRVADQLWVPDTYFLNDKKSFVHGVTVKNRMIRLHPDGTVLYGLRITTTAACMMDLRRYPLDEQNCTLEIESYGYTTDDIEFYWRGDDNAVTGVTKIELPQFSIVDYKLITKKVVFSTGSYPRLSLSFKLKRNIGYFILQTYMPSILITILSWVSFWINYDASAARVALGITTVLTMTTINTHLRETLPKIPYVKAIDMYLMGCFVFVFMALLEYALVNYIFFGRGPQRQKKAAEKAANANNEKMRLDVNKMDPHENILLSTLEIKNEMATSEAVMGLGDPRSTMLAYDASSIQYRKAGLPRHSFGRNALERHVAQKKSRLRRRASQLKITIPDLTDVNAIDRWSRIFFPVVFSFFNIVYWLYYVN
Description: as §1, §2, §3, §4

[5] = molecular target: T5, α1β1 GABAA receptors (Rattus norvegicus, UniProt P15431+P62813); assay: Two electrode voltage clamp in Xenopus laevis oocytes, α1β1; conditions: α1β1
T5 construct: expressed in transfected cells; host or cells: Xenopus laevis oocytes, mRNA injected
T5 sequence (P62813 28-455): as the sequence (P62813 28-455) above
T5 sequence (P15431 26-474): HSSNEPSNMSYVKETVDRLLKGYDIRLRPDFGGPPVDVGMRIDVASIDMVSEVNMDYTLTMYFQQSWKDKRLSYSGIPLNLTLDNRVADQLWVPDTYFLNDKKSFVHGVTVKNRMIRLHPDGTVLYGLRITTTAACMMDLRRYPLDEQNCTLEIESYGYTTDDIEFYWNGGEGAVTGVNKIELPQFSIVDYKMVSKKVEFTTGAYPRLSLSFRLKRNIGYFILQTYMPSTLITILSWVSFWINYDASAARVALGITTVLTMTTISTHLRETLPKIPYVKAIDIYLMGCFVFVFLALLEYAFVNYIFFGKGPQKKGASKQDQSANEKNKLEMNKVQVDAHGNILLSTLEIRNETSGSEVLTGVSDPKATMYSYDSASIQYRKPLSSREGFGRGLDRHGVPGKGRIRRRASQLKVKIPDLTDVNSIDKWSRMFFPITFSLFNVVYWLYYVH
Description: as §1, §2, §3, §4

[6] = molecular target: T6, α2β3γ2 GABAA receptors (Rattus norvegicus, UniProt P23576+P63079); assay: Two electrode voltage clamp in Xenopus laevis oocytes, α2β3γ2
T6 construct: expressed in transfected cells; host or cells: Xenopus laevis oocytes, mRNA injected
T6 sequence (P23576 29-451): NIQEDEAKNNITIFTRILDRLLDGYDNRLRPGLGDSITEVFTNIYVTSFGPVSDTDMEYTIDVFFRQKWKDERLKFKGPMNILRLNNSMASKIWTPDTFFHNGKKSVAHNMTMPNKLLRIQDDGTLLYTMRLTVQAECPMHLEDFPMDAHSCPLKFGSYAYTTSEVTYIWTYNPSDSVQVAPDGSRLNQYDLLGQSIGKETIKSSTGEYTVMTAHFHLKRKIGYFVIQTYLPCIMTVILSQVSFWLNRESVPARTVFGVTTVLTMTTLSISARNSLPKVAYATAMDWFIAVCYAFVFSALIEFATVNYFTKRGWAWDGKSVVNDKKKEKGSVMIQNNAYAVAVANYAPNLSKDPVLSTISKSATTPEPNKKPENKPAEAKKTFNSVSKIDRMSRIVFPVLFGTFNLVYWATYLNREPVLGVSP
T6 sequence (P63079 26-473): as the sequence (P63079 26-473 N66R) above, with R41N counted along it
T6 sequence (P18508 39-466 partner): as the sequence (P18508 39-466 partner) above
Description: as §1, §2, §3, §4

[7] = molecular target: T7, α1β1R41N GABAA receptors (Rattus norvegicus, UniProt P15431+P62813, R66N); assay: Two electrode voltage clamp in Xenopus laevis oocytes, mutant α1β1R41N; conditions: read-out: % of control current at EC3-5
T7 construct: expressed in transfected cells; host or cells: Xenopus laevis oocytes, mRNA injected
T7 sequence (P62813 28-455): as the sequence (P62813 28-455) above
T7 sequence (P15431 26-474 R66N): as the sequence (P15431 26-474) above, with R41N counted along it
Description: as §1, §2, §3, §4

Compound `Cc1ccc(-n2nc3c4cc(Cl)ccc4[nH]cc-3c2=O)cc1` [Compound 2, 8-Chloro-2-(4-methylphenyl)-2H-pyrazolo[4,3-c]quinolin-3(5H)-one] has an EC50 [1] of 3440 nM, an EC50 [2] of 13400 nM and an activity at 0.001 µM ([2]; read-out: efficacy, % of control current (GABA EC3-5 = 100%), α4β3γ2, 1 nM) of 101 ± 1.8%. The activity at 0.003 µM ([2]; read-out: efficacy, % of control current (GABA EC3-5 = 100%), α4β3γ2, 3 nM) was 96.3 ± 8%, the activity at 0.01 µM ([2]; read-out: efficacy, % of control current (GABA EC3-5 = 100%), α4β3γ2, 10 nM) was 100 ± 2.2% and the activity at 0.03 µM ([2]; read-out: efficacy, % of control current (GABA EC3-5 = 100%), α4β3γ2, 30 nM) was 104 ± 4.4%. It also gave an activity at 0.1 µM ([2]; read-out: efficacy, % of control current (GABA EC3-5 = 100%), α4β3γ2, 100 nM) of 120 ± 10.1%, an activity at 1 µM ([2]; read-out: efficacy, % of control current (GABA EC3-5 = 100%), α4β3γ2, 1 µM) of 162 ± 16.3% and an activity at 10 µM ([2]; read-out: efficacy, % of control current (GABA EC3-5 = 100%), α4β3γ2, 10 µM) of 267 ± 16.8%. It also gave an activity at 30 µM ([2]; read-out: efficacy, % of control current (GABA EC3-5 = 100%), α4β3γ2, 30 µM) of 315 ± 30.1%, an activity at 0.001 µM ([3]; read-out: efficacy, % of control current (GABA EC3-5 = 100%), α1β3, 1 nM) of 100.1 ± 0.1% and an activity at 0.003 µM ([3]; read-out: efficacy, % of control current (GABA EC3-5 = 100%), α1β3, 3 nM) of 100.1 ± 0.1%. The activity at 0.01 µM ([3]; read-out: efficacy, % of control current (GABA EC3-5 = 100%), α1β3, 10 nM) was 100.7 ± 0.5%, the activity at 0.1 µM ([3]; read-out: efficacy, % of control current (GABA EC3-5 = 100%), α1β3, 100 nM) was 109 ± 2.2% and the activity at 0.3 µM ([3]; read-out: efficacy, % of control current (GABA EC3-5 = 100%), α1β3, 300 nM) was 122 ± 5.4%. For the same compound, the activity at 1 µM ([3]; read-out: efficacy, % of control current (GABA EC3-5 = 100%), α1β3, 1 µM) was 151 ± 11.5%, the activity at 3 µM ([3]; read-out: efficacy, % of control current (GABA EC3-5 = 100%), α1β3, 3 µM) was 276 ± 41.7% and the activity at 10 µM ([3]; read-out: efficacy, % of control current (GABA EC3-5 = 100%), α1β3, 10 µM) was 372 ± 40.1%. For the same compound, the “Hill slope (nH)” value ([3]; α1β3) was 1.9±0.6, the EC50 ([3]; α1β3, co-applied with GABA EC3-5, read-out: EC50) was 2390 nM and the EC50 ([3]; α1β3, log of EC50, sign as printed, read-out: LogEC50 (converted)) was 2400 nM and 2510 nM. It also gave an EC50 [4] of 4310 nM, an activity at 0.1 µM ([4]; read-out: efficacy, % of control current (GABA EC3-5 = 100%), α1β2, 100 nM) of 105 ± 1.4% and an activity at 1 µM ([4]; read-out: efficacy, % of control current (GABA EC3-5 = 100%), α1β2, 1 µM) of 134 ± 8.2%. For the same compound, the “Hill slope (nH)” value ([4]; α1β2) was 2.0±0.9, the activity at 0.3 µM ([5]; read-out: efficacy, % of control current (GABA EC3-5 = 100%), 300 nM) was 194 ± 23.3% and the “Hill slope (nH)” value [5] was 1.0±0.4. For the same compound, the EC50 ([5]; co-applied with GABA EC3-5, read-out: EC50) was 770 nM, the EC50 ([5]; log of EC50, sign as printed, read-out: LogEC50 (converted)) was 759 nM and the EC50 [6] was 5500 nM. For the same compound, the activity at 0.001 µM ([6]; read-out: efficacy, % of control current (GABA EC3-5 = 100%), α2β3γ2, 1 nM) was 100%, the activity at 0.01 µM ([6]; read-out: efficacy, % of control current (GABA EC3-5 = 100%), α2β3γ2, 10 nM) was 108 ± 4.2% and the activity at 0.1 µM ([6]; read-out: efficacy, % of control current (GABA EC3-5 = 100%), α2β3γ2, 100 nM) was 111 ± 2.3%. For the same compound, the activity at 0.3 µM ([6]; read-out: efficacy, % of control current (GABA EC3-5 = 100%), α2β3γ2, 300 nM) was 134%, the activity at 1 µM ([6]; read-out: efficacy, % of control current (GABA EC3-5 = 100%), α2β3γ2, 1 µM) was 137 ± 5.5% and the activity at 10 µM ([6]; read-out: efficacy, % of control current (GABA EC3-5 = 100%), α2β3γ2, 10 µM) was 470 ± 50%. For the same compound, the activity at 30 µM ([6]; read-out: efficacy, % of control current (GABA EC3-5 = 100%), α2β3γ2, 30 µM) was 580%, the current as % of control at 0.1 µM ([7]; 100nM) was 70 ± 5% and the current as % of control at 0.3 µM ([7]; 300nM) was 62 ± 8%. It also gave a current as % of control at 1 µM ([7]; 1μM) of 62 ± 8%, a current as % of control at 3 µM ([7]; 3µM) of 60 ± 9% and a current as % of control at 10 µM ([7]; 10μM) of 60 ± 10%. For the same compound, the current as % of control at 30 µM ([7]; 30μM) was 60 ± 8%.
